In patent US20250049678A1, “COMPOUNDS ATTACHABLE TO SKIN” (Inkbox Ink Incorporated, priority 2021, published 2025):

Columns and labels:
[1] = UV/visible absorbance after reacting the compound with lysine to mimic skin binding; assay type: physicochemical; details: for visible color after reaction with lysine / UV-light absorption after reaction with lysine: lysine conjugate, mimic of skin binding; for visible color after reaction with lysine: absorbance at wavelengths above 410 nm; for UV-light absorption after reaction with lysine: absorbance at wavelengths below 410 nm; for UV blocking activity: FIG. 6, salicylic acid as such, attached to hydrogenated genipin anchor, and bound to skin mimic; for shift in UV absorbance peak on reaction with lysine: compound versus its lysine conjugate; for absorbance properties / color of the dye compound after binding to lysine: versus the dye compound prior to conjugation with lysine, in solution, FIG. 3D
From the text: A hydrogenated genipin derivative (compound 1) was conjugated with lysine to obtain compound 1-lysine conjugate:
The azo-dye compound of example 5 was conjugated with lysine to obtain a conjugate:
The compound of Example 7 was conjugated with lysine to obtain the lysine conjugate:
The OL compound of example 8 was conjugated with lysine to obtain OL-lysine conjugate: […]

[2] = tested on: skin substrate (a porcine skin explant); assay: Sunscreen application on skin substrate: UV-light absorption and retention after wiping, washing and scrubbing
From the text: When referring to protective groups hydrolysable under physiological conditions after application of the topical composition onto the skin here and elswhere in the dislcosure: Such groups are readily known to the skilled person and include, in particular acyl moieties such as optionally substituted acyl moieties comprising 1 to 30, more specifically 1 to 16, and in particular 1 to 12, carbon atoms; 0 to 12, more specifically 0 to 8, and in particular 0 to 6 oxygen atoms; 0 to 8, more specifically 0 to 6, and in particular 0 to 4 nitrogen atoms; 0 to 6, more specifically 0 to 4, and in particular 0 to 3 sulfur atoms; and 0 to 10, more specifically 0 to 8, and in particular 0 to 6 halogen atoms. Specific examples include C1-C18 acyl moieties, more specifically C1-C12 acyl moieties and in particular […]. When referring in this context to “physiological conditions” it should be understood that this in particular refers to the pH conditions encountered at the locus where the compound of formula (I) is supposed to bind to proteins in e.g. the stratum corneum and/or the epidermis of the (mammalian, in particular human) subject to be treated. […]

SMILES	visible color after reaction with lysine [1]	UV-light absorption after reaction with lysine [1]	shift in UV absorbance peak on reaction with lysine [1]	other results
C=CC1=CN(CCCCC(N)C(=O)O)C=C(C(=O)OC)C1CC(=O)OCCc1ccc(O)c(O)c1 (stereo not drawn)	no visible color	strong UV-light absorption		
O=C(O)c1ccccc1O [salicylic acid, reference compound]				UV blocking activity [1]: UV blocking agent
COC(=O)C1=COC(O)C2C(COC(=O)c3ccc(/N=N/c4ccccc4)cc3)CCC12 (stereo not drawn) [Example 5, methyl (E)-1-hydroxy-7-(((4-(phenyldiazenyl)benzoyl)oxy)methyl)-1,4a,5,6,7,7a-hexahydrocyclopenta[c]pyran-4-carboxylate]				absorbance properties / color of the dye compound after binding to lysine [1]: does not alter absorbance properties; absorbance properties / color of the dye compound after binding to lysine ([1]; listed as azo-dye-anchor molecule): retains its original color
COC(=O)C1=COC(O)C2C(COC(=O)c3ccccc3O)CCC12 (stereo not drawn) [Example 7, methyl 1-hydroxy-7-(((2-hydroxybenzoyl)oxy)methyl)-1,4a,5,6,7,7a-hexahydrocyclopenta[c]pyran-4-carboxylate]	no visible color is produced		small shift in UV absorbance peak	UV blocking activity [1]: retained
CCCCC(CC)COC(=O)c1ccccc1O (stereo not drawn) [octisalate]				UV-light absorption on the skin substrate and removability after wiping ([2]; 50 mM solutions, 2 and 4 hours after application, wiped with a wet tissue at 4 hours, UV light 254 nm, FIG. 4): easily removable from the skin; UV-light absorption / presence on the skin substrate after washing and scrubbing ([2]; 24 and 26 hours total contact time, submerged in water for 2 hours and scrubbed vigorously, UV camera with UV-B filter, FIG. 5): no longer present
COC(=O)C1=COC(O)C2C(CO)CCC12 (stereo not drawn) [Compound 2, methyl 1-hydroxy-7-(hydroxymethyl)-1,4a,5,6,7,7a-hexahydrocyclopenta[c]pyran-4-carboxylate]	no visible color	strong UV-light absorption		

More lines, main results first:

visible color after reaction with lysine [1]	UV-light absorption after reaction with lysine [1]	shift in UV absorbance peak on reaction with lysine [1]	SMILES	other results
almost no visible color		small shift in UV absorbance peak	C/C=C1/[C@H](O)OC=C(C(=O)OC)[C@H]1CC(=O)OCCc1ccc(O)c(O)c1 [OL, methyl (4s,5e,6r)-4-[2-[2-(3,4-dihydroxyphenyl)ethoxy]-2-oxoethyl]-5-ethylidene-6-hydroxy-4h-pyran-3-carboxylate]	
no visible color	strong UV-absorption	small shift	COC(=O)C1=COC(O)C2C(C)CCC12 (stereo not drawn) [Compound 1, methyl 1-hydroxy-7-methyl-1,4a,5,6,7,7a-hexahydrcyclopenta[c]pyran-4-carboxylate]	
no visible color	strong UV-light absorption		COC(=O)C1=CN(CCCCC(N)C(=O)O)C=C2C(C)CCC12 (stereo not drawn) [compound 1-lysine conjugate]	
no visible color	strong UV-light absorption		COC(=O)C1=CN(CCCCC(N)C(=O)O)C=C2C(COC(=O)c3ccccc3O)CCC12 (stereo not drawn)	
